{"source": "ChEMBL document CHEMBL3407445", "about": "“Benzofuran-derived benzylpyridinium bromides as potent acetylcholinesterase inhibitors” (Eur J Med Chem, 2015)"}
{"target": "Acetylcholinesterase (Electrophorus electricus, UniProt O42275)", "sequence (O42275 whole entry)": "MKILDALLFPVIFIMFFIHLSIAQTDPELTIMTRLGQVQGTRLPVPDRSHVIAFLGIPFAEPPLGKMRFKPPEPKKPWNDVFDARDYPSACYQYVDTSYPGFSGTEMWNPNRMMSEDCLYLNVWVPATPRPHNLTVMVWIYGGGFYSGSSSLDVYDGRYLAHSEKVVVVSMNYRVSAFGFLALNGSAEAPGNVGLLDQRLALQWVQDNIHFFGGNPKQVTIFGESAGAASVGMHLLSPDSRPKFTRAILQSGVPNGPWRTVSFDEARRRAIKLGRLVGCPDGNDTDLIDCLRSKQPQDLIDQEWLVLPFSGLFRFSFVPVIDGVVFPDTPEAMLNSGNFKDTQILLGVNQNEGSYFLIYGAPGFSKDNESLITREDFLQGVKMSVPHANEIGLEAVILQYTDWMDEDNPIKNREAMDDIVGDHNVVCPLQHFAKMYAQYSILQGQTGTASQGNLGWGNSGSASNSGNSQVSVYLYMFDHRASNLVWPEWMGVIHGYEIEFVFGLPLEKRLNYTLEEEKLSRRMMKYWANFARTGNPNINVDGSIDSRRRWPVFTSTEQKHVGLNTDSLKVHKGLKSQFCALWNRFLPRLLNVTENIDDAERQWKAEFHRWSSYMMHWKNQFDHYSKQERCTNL", "experiment": "Inhibition of electric eel AChE using acetylthiocholine substrate by Ellman's reagent based method", "units": {"IC50": "nM"}}
{"compound": "Fc1cccc(C[n+]2ccc(-c3cc4cc(Br)ccc4o3)cc2)c1", "IC50": 9.6}
{"compound": "O=[N+]([O-])c1ccccc1C[n+]1ccc(-c2cc3ccccc3o2)cc1", "IC50": 4.9}
{"compound": "COc1cccc2cc(-c3cc[n+](Cc4ccc(Br)cc4)cc3)oc12", "IC50": 29.5}
{"compound": "COc1cccc2cc(-c3cc[n+](Cc4ccc([N+](=O)[O-])cc4)cc3)oc12", "IC50": 10.6}
{"compound": "Cc1ccccc1C[n+]1ccc(-c2cc3ccccc3o2)cc1", "IC50": 6.8}
{"compound": "Brc1ccc(C[n+]2ccc(-c3cc4cc(Br)ccc4o3)cc2)cc1", "IC50": 31.5}
{"compound": "COc1cccc2cc(-c3cc[n+](Cc4ccccc4)cc3)oc12", "IC50": 26.5}
{"compound": "O=[N+]([O-])c1ccc(C[n+]2ccc(-c3cc4ccccc4o3)cc2)cc1", "IC50": 5.8}
{"compound": "Cc1cc(C)cc(C[n+]2ccc(-c3cc4ccccc4o3)cc2)c1", "IC50": 4.1}
{"compound": "Brc1ccc2oc(-c3cc[n+](Cc4ccccc4)cc3)cc2c1", "IC50": 13.5}
{"compound": "Fc1ccc(C[n+]2ccc(-c3cc4cc(Br)ccc4o3)cc2)cc1", "IC50": 8.7}
{"compound": "COc1cccc2cc(-c3cc[n+](Cc4cccc(Br)c4)cc3)oc12", "IC50": 22.4}
{"compound": "O=[N+]([O-])c1ccc(C[n+]2ccc(-c3cc4cc(Br)ccc4o3)cc2)cc1", "IC50": 8.1}
{"compound": "Brc1ccc(C[n+]2ccc(-c3cc4ccccc4o3)cc2)cc1", "IC50": 16}
{"compound": "COc1cccc2cc(-c3cc[n+](Cc4cccc(F)c4)cc3)oc12", "IC50": 18.9}
{"target": "Acetylcholinesterase (Electrophorus electricus) (UniProt O42275)", "sequence (O42275 24-633 limits assumed)": "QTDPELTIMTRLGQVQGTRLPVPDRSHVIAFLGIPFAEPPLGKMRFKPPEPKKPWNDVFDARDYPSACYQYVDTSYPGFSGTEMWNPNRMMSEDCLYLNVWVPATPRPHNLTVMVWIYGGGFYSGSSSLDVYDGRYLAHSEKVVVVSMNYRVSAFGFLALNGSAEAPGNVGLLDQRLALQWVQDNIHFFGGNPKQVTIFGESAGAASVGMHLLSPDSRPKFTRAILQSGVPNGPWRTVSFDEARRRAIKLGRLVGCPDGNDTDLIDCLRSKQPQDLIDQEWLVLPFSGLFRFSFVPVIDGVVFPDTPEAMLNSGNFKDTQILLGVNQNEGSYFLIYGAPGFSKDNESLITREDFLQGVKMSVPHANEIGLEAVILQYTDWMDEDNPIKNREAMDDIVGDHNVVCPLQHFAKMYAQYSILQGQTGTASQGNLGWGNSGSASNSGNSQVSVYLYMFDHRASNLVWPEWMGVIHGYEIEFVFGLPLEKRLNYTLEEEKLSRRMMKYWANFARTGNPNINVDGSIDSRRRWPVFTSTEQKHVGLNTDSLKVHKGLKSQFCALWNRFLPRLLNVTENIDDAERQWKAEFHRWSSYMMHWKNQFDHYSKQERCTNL", "experiment": "Potency index, ratio of IC50 for donepezil to IC50 for compound against electric eel AChE using acetylthiocholine substrate by Ellman's reagent based method"}
{"compound": "Cc1cc(C)cc(C[n+]2ccc(-c3cc4ccccc4o3)cc2)c1", "Ratio IC50": 7}
